The subject of series [1] is PCA (homologous passive cutaneous anaphylaxis) in rat. Nature of the series: Inhibitory activity against PCA in rat. The format is in vivo, rat (male Slc: Wistar). To be noted: Rattus norvegicus; 5 mg/kg oral, 1 hour before antigen challenge; read-out: Inhibition rate against PCA. Here is the method:
An anti-dinitrophenylated-ovalbumin (hereinafter referred to as "anti-DNP-OVA") rat antiserum having 800 of PCA titer in homologous passive cutaneous anaphylaxis reaction in rats for 48 hours, was diluted 200 times with physiological saline, and diluted antiserum was injected intradermally into back of groups of 5 male Slc: Wistar rats weighing 130-150 g in a volume of 50 μl/site to be passively sensitized. After 48 hours, 0.6 ml of 1% (w/v) Evans blue solution containing 1.5 mg of antigen DNP-OVA was administered intravenously into the tail. Thirty minutes later, the rats were bled to death and skin of the rats was removed. According to the method of Katayama et al [Microbiol. […] The test compound was suspended in 0.5% (w/v) aqueous solution of carboxymethylcellulose (hereinafter referred to as "CMC"), the suspension was administered orally in a ratio of 5 mg/kg 1 hour before challenging an antigen.
Inhibition rate against PCA was calculated according to the following equation. [formula] M: Amount of leaked pigment in antibody-sensitized site under administration of CMC without the test compound
S: Amount of leaked pigment in antibody-sensitized site under administration of the test compound in CMC
B: Amount of leaked pigment in antibody-nonsensitized site

The test system of series [2] is histamine release from rat mast cell. Nature of the series: Inhibitory activity against histamine release from rat mast cell. It is filed as cell-based. Conditions: 10 μg/ml, read-out: Inhibitory rate against histamine release. Here is the method:
An anti-dinitrophenylated-ovalbumin (anti DNP-OVA) rat antiserum having 800 of PCA titer in homologous passive cutaneous anaphylaxis reaction in rats for 48 hours was diluted double with physiological saline, and 1 ml of diluted antiserum was injected intraperitoneally into rats to be passively sensitized. On the next day, peritoneal exudation cell (hereinafter referred to as "PEC") was collected. The collected PEC was washed with a medium containing 0.1% BSA, and 1.5×10^5 of the PEC were added to each test tube. AFter incubation at 37° C. for 10 minutes, 50 μl of test compound solution in a same medium was added thereto. After 30 seconds, 50 μl of antigen solution (DVA-OVA 100 μg/ml) was further added thereto to give the total amount of 500 μl of the reaction mixture, and histamine release reaction was induced. After 10 minutes, 1 ml of physiological saline with cooled Tris buffered solution containing 1 mM EDTA were added thereto to stop the reaction. After centrifugation, the amount of histamine in supernatant was determined by fluorescence method according to the method of Shore et al [cf. J. Pharmacol. Exp. Ther., 127, 182 (1959)]. Inhibition rate against histamine release was calculated according to the following equation.
Inhibition rate against histamine release [formula] M: Amount of histamine in supernatant under addition of antigen and non-addition of test compound
S: Amount of histamine in supernatant under addition of antigen and test compound
B: Amount of histamine in supernatant under non-addition of antigen and test compound.
The test compound was used in a concentration of 10 μg/ml.

Series [3] concerns smooth musculus trachealis. Nature of the series: Relaxant activity of smooth musculus trachealis in guinea pig. Further details: species or system guinea pig (male Hartley). Conditions: Cavia porcellus; tracheal chain strips, 37° C.; read-out: Concentration for 50% relaxation. The procedure:
Male Hartley guinea pigs weighing 350 to 550 g were bleed to death, and immediately the tracheae were extirpated. According to the method of Takagi et al [cf. Chem. Pharm. Bull., 8, 716 (1958)], tracheal chain strips was prepared, and the sample was suspended on Magnus apparatus under addition of load of 0.5 g. The test was carried out at 37° C. of liquid temperature. After position of tonus was examined with histamine (10^-6 g/ml) and isoproterenol (10^-7 g/ml), the test compound dissolved in a mixture of dimethyl sulfoxide and physiological saline was added thereto, and the test compound was investigated with respect to the effect on smooth musculus trachealis. Theophylline was used as a positive comparative drug. The relaxation and the contraction of smooth musculus trachealis were recorded on servocorder (SR 6342: commercially available from Watanabe Instruments Corp.) by connecting Isotonic Transducer (TD-1125: commercially available from Nihon Kohden Kogyo Co., Ltd.) to a balancing box.

In another series the target is T1, 5-lipoxygenase (Cavia porcellus, UniProt A0A286X958).
T1 construct: 5-lipoxygenase was prepared with polymorphonuclear leukocyte obtained from peritoneal cavity; endogenous in cells; host or cells: guinea pig peritoneal polymorphonuclear leukocytes (casein-elicited)
T1 sequence (A0A286X958 1-674): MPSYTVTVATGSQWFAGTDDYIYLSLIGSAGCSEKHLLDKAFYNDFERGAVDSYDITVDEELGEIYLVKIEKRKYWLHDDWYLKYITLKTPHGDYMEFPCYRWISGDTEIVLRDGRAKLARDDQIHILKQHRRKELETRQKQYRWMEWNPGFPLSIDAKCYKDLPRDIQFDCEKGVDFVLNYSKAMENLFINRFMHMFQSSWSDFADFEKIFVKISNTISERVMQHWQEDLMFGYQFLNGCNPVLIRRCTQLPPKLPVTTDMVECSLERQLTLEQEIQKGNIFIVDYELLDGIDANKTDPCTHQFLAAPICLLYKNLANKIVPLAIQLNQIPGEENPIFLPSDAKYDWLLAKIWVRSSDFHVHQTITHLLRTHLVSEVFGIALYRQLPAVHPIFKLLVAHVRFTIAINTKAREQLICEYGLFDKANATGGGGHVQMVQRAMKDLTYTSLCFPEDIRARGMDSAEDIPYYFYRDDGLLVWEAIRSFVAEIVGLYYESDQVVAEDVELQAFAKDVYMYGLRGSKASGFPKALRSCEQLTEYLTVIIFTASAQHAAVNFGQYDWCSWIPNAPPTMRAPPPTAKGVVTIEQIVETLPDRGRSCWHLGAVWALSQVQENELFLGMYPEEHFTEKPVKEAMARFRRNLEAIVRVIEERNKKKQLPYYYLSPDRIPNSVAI
Nature of the series: 5-lipoxygenase inhibiting activity in guinea pig. The format is biochemical. To be noted: read-out: Inhibition rate against 5-lipoxygenase activity. Here is the method: The test was carried out according to the method of Ochi [cf. J. Biol. Chem., 258, 5754-5758 (1983)]. Two % casein solution in saline was injected intraperitoneally into guinea pigs in an amount of 1/10 of body weight. After 16 hours, 5-lipoxygenase was prepared with polymorphonuclear leukocyte obtained from peritoneal cavity. Test compound and 5-lipoxygenase were pre-incubated at 30° C. for 10 minutes, CaCl2 (calcium chloride) and ^14 C-arachidonic acid were added thereto, and the resulting mixture was incubated for 20 minutes. A mixture of ethyl acetate/methanol/0.2M citric acid=30/4/1 (by volume) was added thereto to stop the reaction. After centrifugation, the organic solvent layer was spotted on a plate for thin layer chromatography and developed. Effect of the test compound was determined from the amount of ^14 C-5-hydroxyeicosatetraenoic acid (hereinafter referred to as "5-HETE") formed from ^14 C-arachidonic acid. Radioactivity of 5-HETE position was measured with a liquid scintillation counter.
Inhibition rate against 5-lipoxygenase activity was calculated according to the following equation.
Inhibition rate against 5-lipoxygenase activity [formula] A: Value of radioactivity in the control group B: Value of radioactivity in the test compound group
Each test compound was used in a concentration of 10 μM.

A further series can be described thus: Acute toxicity in mouse. The format is in vivo. To be noted: 2 weeks observation. Here is the method: The test was carried out with the compounds obtained in Examples 5 and 9. Groups of 5 male ddy mice weighing 26 to 28 g were employed. The test compounds were suspended in a 0.5% CMC aqueous solution and the resulting suspension was administered orally in an amount of 500 for the compound obtained in Example 9, 1000 or 2000 mg/kg body weight. The survivors were kept under observation daily for 2 weeks. From the results shown in Table 6, the LD50 of the compounds obtained in Example 5 and 9 were estimated to be more than 2000 mg/kg. The other compounds of the present invention also had the same toxicity as the above compounds.

The subject of series [4] is carrageenin edema in a foot-pad of rat. Nature of the series: Effect on carrageenin edema in a foot-pad of rat. The format is in vivo, rat (male Wister). To be noted: 4 hours after carrageenin; for Inhibition rate against swelling: vs 0.5% CMC group. The procedure: The test was carried out according to the modified method on a method of Winter et al [Proc. Soc. Exp. Biol Med., 111, 544-547 (1962)]. Five male Wister rats weighing 148 to 162 g which were subjected to fasting for 24 hours were used as one group.
The test compound was suspended in 0.5% aqueous solution of CMC, and the suspension was administered orally in a amount of 50 mg/kg. After 60 minutes, 0.1 ml of 1% carrageenin solution in physiological saline was injected subcutaneously into the foot-pad of the left hind foot. Four hours after the injection of carrageenin, the volume of the foot-pad was measured by the apparatus for measurement of foot-pad volume in rat (commercially available from Ugobasile).
Swelling volume was calculated from the difference between a volume of foot-pad before inflaming the foot-pad, i.e. normal volume and that after inflaming it. Effect of a test compound was expressed as inhibition rate against swelling by calculating percentage in comparison with the 0.5% CMC administration group.
Indomethacin (commercially available from Merck Co.) was used as a positive comparative drug.
(In general: The carrageenan paw model is a standard test of acute inflammation.)

The mark [5] stands for this setting: 5 mg/kg p.o. (positive comparative drug).

The results in this text go back to patent publication USRE34918E, “Azaazulene compounds which are useful as antiallergic and antiinflammatory agents” (Kaken Pharmaceutical Co., Ltd., priority 1988, dated 1995).

The structures appear in SMILES notation. Converted amounts (≈) assume the structure as drawn. “And” between values parts separate entries of the source, which are not always exact repeats. Equal values may be shown once. Where only a bound is given, the exact number is not on record here.

For `CC(C)c1cccc2c(-c3nnn[nH]3)c(=O)n(Cc3ccccc3)c-2c1` [Example 5, 7-Iso-propyl-1-benzyl-3-(5-tetrazolyl)-1-azaazulane-2-one], in series [1], the inhibition in vivo at 5 mg/kg turned out to be 94.8 ± 5.1%. Besides, the inhibition at 10 µg/mL in series [2] worked out at 81.1%. For the same compound, in series [3], the EC50 is 1.2 µg/mL (≈ 3.47 µM). Further, on 5-lipoxygenase, the inhibition at 10 µM was found to be 1.5%. The Mortality in the series “Acute toxicity in mouse” (1000 mg/kg p.o.) and in the series “Acute toxicity in mouse” (2000 mg/kg p.o.) was 0/5 throughout. For the same compound, the LD50 at 336 h in “Acute toxicity in mouse” (mouse, in vivo, oral) was > 2000 mg/kg.

As to `CC(C)c1cccc2c(-c3nnn[nH]3)c(=O)n(Cc3ccc(F)cc3)c-2c1` [Example 10, 1-(4-Fluorobenzyl)-7-iso-propyl-3-(5-tetrazolyl)-1-azaazulane-2-one], in series [4] (50 mg/kg p.o.), the “Swelling volume 4 hours after inflaming, mean ± standard error” value is 0.58 mL and 0.58 ± 0.036 mL; the “Inhibition rate against swelling” value turned out to be 35.6%. For the same compound, the inhibition at 10 µg/mL in series [2] is 99.8%. Also, the EC50 in series [3] is 3.4 µg/mL (≈ 9.36 µM). For the same compound, the inhibition at 10 µM at 5-lipoxygenase was 41.8%.

With `CC(C)c1cccc2n(CCCc3ccccc3)c(=O)c(-c3nn[nH]n3)c-2c1` [Example 30], in series [1], the inhibition in vivo at 5 mg/kg came out at 10.8 ± 11.1%. The inhibition at 10 µg/mL in series [2] was 99.5%. The EC50 in series [3] is 7.8 µg/mL (≈ 20.9 µM). Further, the inhibition at 10 µM at 5-lipoxygenase was found to be 12.2%.

For the compound `COc1ccc2c(c1)c(CC(=O)O)c(C)n2C(=O)c1ccc(Cl)cc1` [Indomethacin, reference compound], in series [4] (setting [5]), the “Swelling volume 4 hours after inflaming, mean ± standard error” value is 0.47 ± 0.056 mL and the “Inhibition rate against swelling” value amounted to 47.8%.

The LD50 is the dose at which mortality reaches 50%. A lower LD50 goes with greater toxicity.
